# Data from PubChem BioAssay (NCI).
#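 96-well plates; 48 h exposure; 5 concentrations. Endpoints by linear interpolation between flanking doses. Not reached: highest tested concentration assigned. GI50 marks 50% less growth. TGI marks complete inhibition of growth.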
# Experiments:
# Assay in all cases: NCI tumour cell line growth inhibition, 48 h
# OVCAR-5 ovarian = system: OVCAR-5 ovarian
# HS 578T breast = system: HS 578T breast
# UACC-257 melanoma = system: UACC-257 melanoma
# OVCAR-8 ovarian = system: OVCAR-8 ovarian
# SNB-19 CNS = system: SNB-19 CNS
# HCC-2998 colon = system: HCC-2998 colon
# CCRF-CEM leukemia = system: CCRF-CEM leukemia
# DU-145 prostate = system: DU-145 prostate
# SK-OV-3 ovarian = system: SK-OV-3 ovarian
# ACHN renal = system: ACHN renal
# MALME-3M melanoma = system: MALME-3M melanoma
# SF-539 CNS = system: SF-539 CNS
# K-562 leukemia = system: K-562 leukemia
# SK-MEL-28 melanoma = system: SK-MEL-28 melanoma
# EKVX NSCLC = system: EKVX NSCLC
# MCF7 breast = system: MCF7 breast
# M14 melanoma = system: M14 melanoma
# UACC-62 melanoma = system: UACC-62 melanoma
# MOLT-4 leukemia = system: MOLT-4 leukemia
# NCI-H226 lung = system: NCI-H226 lung
# BT-549 breast = system: BT-549 breast
# CAKI-1 renal = system: CAKI-1 renal
# SK-MEL-5 melanoma = system: SK-MEL-5 melanoma
# MDA-MB-435 = system: MDA-MB-435
# NCI-H23 lung = system: NCI-H23 lung
# T-47D breast = system: T-47D breast
# SF-295 CNS = system: SF-295 CNS
# HCT-15 colon = system: HCT-15 colon
# 786-0 renal = system: 786-0 renal
# MDA-MB-231 breast = system: MDA-MB-231 breast
# RPMI-8226 leukemia = system: RPMI-8226 leukemia
# SF-268 CNS = system: SF-268 CNS
# UO-31 renal = system: UO-31 renal
# COLO 205 colon = system: COLO 205 colon
# HOP-62 NSCLC = system: HOP-62 NSCLC
# TK-10 renal = system: TK-10 renal
# SR leukemia = system: SR leukemia
# KM12 colon = system: KM12 colon
# A498 renal = system: A498 renal
# NCI-H460 lung = system: NCI-H460 lung
# PC-3 prostate = system: PC-3 prostate
# HOP-92 NSCLC = system: HOP-92 NSCLC
# NCI-H522 lung = system: NCI-H522 lung
# IGROV1 ovarian = system: IGROV1 ovarian
# U251 CNS = system: U251 CNS
# NCI/ADR-RES ovarian = system: NCI/ADR-RES ovarian
# SNB-75 CNS = system: SNB-75 CNS
# A549 NSCLC = system: A549 NSCLC
# SW-620 colon = system: SW-620 colon
# SN12C renal = system: SN12C renal
# HCT-116 colon = system: HCT-116 colon
# RXF 393 renal = system: RXF 393 renal
# LOX IMVI melanoma = system: LOX IMVI melanoma
# OVCAR-3 ovarian = system: OVCAR-3 ovarian
# HT29 colon = system: HT29 colon
# SK-MEL-2 melanoma = system: SK-MEL-2 melanoma
# OVCAR-4 ovarian = system: OVCAR-4 ovarian
# HL-60(TB) leukemia = system: HL-60(TB) leukemia
smiles,measurement,setting,value
CC[C@H](C)[C@H](NC(=O)C12C3C4C1C1C2C3C41NC)C(=O)N(C)[C@H](C[C@@H](OC(C)=O)c1nc(C(=O)N[C@@H](Cc2ccccc2)C[C@H](C)C(=O)OC)cs1)C(C)C (stereo not given in full),GI50,OVCAR-5 ovarian,> 7.57 µM
same,TGI,OVCAR-5 ovarian,> 14.3 µM
same,GI50,HS 578T breast,0.693 µM
same,TGI,HS 578T breast,> 11.9 µM
same,GI50,UACC-257 melanoma,0.655 µM
same,TGI,UACC-257 melanoma,> 14.3 µM
same,GI50,OVCAR-8 ovarian,0.717 µM
same,TGI,OVCAR-8 ovarian,> 14.3 µM
same,GI50,SNB-19 CNS,0.701 µM
same,TGI,SNB-19 CNS,> 14.3 µM
same,GI50,HCC-2998 colon,0.369 µM
same,TGI,HCC-2998 colon,> 14.3 µM
same,GI50,CCRF-CEM leukemia,0.445 µM
same,TGI,CCRF-CEM leukemia,> 14.3 µM
same,GI50,DU-145 prostate,0.446 µM
same,TGI,DU-145 prostate,> 14.3 µM
same,GI50,SK-OV-3 ovarian,0.698 µM
same,TGI,SK-OV-3 ovarian,> 14.3 µM
same,GI50,ACHN renal,1.21 µM
same,TGI,ACHN renal,> 14.3 µM
same,TGI,MALME-3M melanoma,> 14.3 µM
same,GI50,SF-539 CNS,0.546 µM
same,TGI,SF-539 CNS,> 6.08 µM
same,GI50,K-562 leukemia,0.219 µM
same,TGI,K-562 leukemia,> 14.3 µM
same,GI50,SK-MEL-28 melanoma,0.714 µM
same,TGI,SK-MEL-28 melanoma,> 14.3 µM
same,GI50,EKVX NSCLC,1.67 µM
same,TGI,EKVX NSCLC,> 14.3 µM
same,GI50,MCF7 breast,0.0552 µM
same,TGI,MCF7 breast,> 14.3 µM
same,GI50,M14 melanoma,0.42 µM
same,TGI,M14 melanoma,5.54 µM
same,GI50,UACC-62 melanoma,0.118 µM
same,TGI,UACC-62 melanoma,> 14.3 µM
same,GI50,MOLT-4 leukemia,0.713 µM
same,TGI,MOLT-4 leukemia,> 14.3 µM
same,GI50,NCI-H226 lung,> 7.85 µM
same,TGI,NCI-H226 lung,> 14.3 µM
same,GI50,BT-549 breast,0.214 µM
same,TGI,BT-549 breast,3.51 µM
same,GI50,CAKI-1 renal,5.57 µM
same,TGI,CAKI-1 renal,> 14.3 µM
same,GI50,SK-MEL-5 melanoma,0.159 µM
same,TGI,SK-MEL-5 melanoma,2.85 µM
same,GI50,MDA-MB-435,0.0489 µM
same,TGI,MDA-MB-435,0.377 µM
same,GI50,NCI-H23 lung,0.705 µM
same,TGI,NCI-H23 lung,> 14.3 µM
same,GI50,T-47D breast,> 14.3 µM
same,TGI,T-47D breast,> 14.3 µM
same,GI50,SF-295 CNS,0.526 µM
same,TGI,SF-295 CNS,> 9.29 µM
same,GI50,HCT-15 colon,1.27 µM
same,TGI,HCT-15 colon,> 14.3 µM
same,GI50,786-0 renal,0.76 µM
same,TGI,786-0 renal,> 14.3 µM
same,GI50,MDA-MB-231 breast,0.798 µM
same,TGI,MDA-MB-231 breast,> 13 µM
same,GI50,RPMI-8226 leukemia,0.143 µM
same,TGI,RPMI-8226 leukemia,> 6.29 µM
same,GI50,SF-268 CNS,1.3 µM
same,TGI,SF-268 CNS,> 14.3 µM
same,GI50,UO-31 renal,4.16 µM
same,TGI,UO-31 renal,> 14.3 µM
same,GI50,COLO 205 colon,0.402 µM
same,TGI,COLO 205 colon,2.51 µM
same,GI50,HOP-62 NSCLC,1.18 µM
same,TGI,HOP-62 NSCLC,> 11.7 µM
same,GI50,TK-10 renal,> 4 µM
same,TGI,TK-10 renal,> 14.3 µM
same,GI50,SR leukemia,0.0469 µM
same,TGI,SR leukemia,> 14.3 µM
same,GI50,KM12 colon,0.517 µM
same,TGI,KM12 colon,> 14.3 µM
same,GI50,A498 renal,0.296 µM
same,TGI,A498 renal,4.53 µM
same,GI50,NCI-H460 lung,0.617 µM
same,TGI,NCI-H460 lung,> 14.3 µM
same,GI50,PC-3 prostate,0.645 µM
same,TGI,PC-3 prostate,> 14.3 µM
same,GI50,HOP-92 NSCLC,> 6.28 µM
same,TGI,HOP-92 NSCLC,> 14.3 µM
same,GI50,NCI-H522 lung,0.0561 µM
same,TGI,NCI-H522 lung,0.967 µM
same,GI50,IGROV1 ovarian,0.88 µM
same,TGI,IGROV1 ovarian,> 14.3 µM
same,GI50,U251 CNS,0.594 µM
same,TGI,U251 CNS,> 14.3 µM
same,GI50,NCI/ADR-RES ovarian,8.15 µM
same,TGI,NCI/ADR-RES ovarian,> 14.3 µM
same,GI50,SNB-75 CNS,0.319 µM
same,TGI,SNB-75 CNS,> 14.3 µM
same,GI50,A549 NSCLC,4.61 µM
same,TGI,A549 NSCLC,> 14.3 µM
same,GI50,SW-620 colon,0.459 µM
same,TGI,SW-620 colon,> 14.3 µM
same,GI50,SN12C renal,0.896 µM
same,TGI,SN12C renal,> 14.3 µM
same,GI50,HCT-116 colon,0.346 µM
same,TGI,HCT-116 colon,> 14.3 µM
same,GI50,RXF 393 renal,0.413 µM
same,TGI,RXF 393 renal,> 14.3 µM
same,GI50,LOX IMVI melanoma,0.493 µM
same,TGI,LOX IMVI melanoma,> 14.3 µM
same,GI50,OVCAR-3 ovarian,0.0872 µM
same,TGI,OVCAR-3 ovarian,1.02 µM
same,GI50,HT29 colon,0.29 µM
same,TGI,HT29 colon,> 4.78 µM
same,GI50,SK-MEL-2 melanoma,0.223 µM
same,TGI,SK-MEL-2 melanoma,> 14.3 µM
same,GI50,OVCAR-4 ovarian,1.75 µM
same,TGI,OVCAR-4 ovarian,> 14.3 µM
same,GI50,HL-60(TB) leukemia,0.0568 µM
same,TGI,HL-60(TB) leukemia,0.346 µM
